Biological target: GSK-3βFRB* (UniProt P26883+P42345, K2095P/T2098L/W2101F)
Assay: Stabilization of transfected GSK-3β FRB* in MEFs (Western blot)
Assay type: cell-based, mouse
Design: The minimal FRB domain comprises amino acids 2025-2114 of human mTor; GSK-3β (fusion partner); expressed in transfected cells; host or cells: wild-type mouse embryonic fibroblasts (MEFs)
Settings: transiently transfected MEFs, drug for 36 h
Procedure: MEFs were transfected using FuGENE-6 (Roche Applied Science). Plasmid DNA (5 μg per 6 cm dish) was mixed in a 1:2 ratio with the FuGENE-6 reagent in Opti-MEM (Invitrogen Life Technologies) before being applied to the cells growing in DMEM/10% FCS and containing C20-MaRap where appropriate. After 12 hours, the cells were split to 6 well plates before further drug treatments to ensure each well contained an equivalently transfected population.
Western Blot analysis was carried out using cell lysates prepared in RIPA buffer (10 mM Tris pH 7.2, 150 mM NaCl, 0.1% SDS, 1% Triton X-100, 1% deoxycholate, 5 mM EDTA, protease inhibitor cocktail (Invitrogen Life Technologies)) and then separated using standard SDS/PAGE before being transferred to PVDF (Millipore) using standard Western blotting procedures. The anti-GSK-3β antibody, used at 1:2500, the anti-HSP-90 antibody, 1:2500, and the anti-FKBP12 antibody, 1:2500, were purchased from BD Transduction Labs. The anti-β-catenin antibody, 1:2000, and anti-HSP-70 antibody, 1:1000 were purchased from Santa Cruz Biotechnology. The anti-BRG1 antibody, 1:1000, was previously prepared in our laboratory (Khavari, P. A. et al. “BRG1 Contains a Conserved Domain of the SWI2/SNF2 Family Necessary for Normal Mitotic Growth and Transcription.” (1993) Published in Nature 366, 170-174). […]

GSK-3βFRB*, sequence (P42345 2025-2114 K2095P/T2098L/W2101F): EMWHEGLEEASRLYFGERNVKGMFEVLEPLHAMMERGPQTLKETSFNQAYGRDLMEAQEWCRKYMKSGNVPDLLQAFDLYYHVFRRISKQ
GSK-3βFRB*, sequence (P26883 2-108): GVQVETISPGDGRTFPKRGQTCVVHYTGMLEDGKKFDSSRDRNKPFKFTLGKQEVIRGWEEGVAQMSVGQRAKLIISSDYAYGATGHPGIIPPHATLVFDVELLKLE

Substance: C20-(R or S)-methallylrapamycin [C20-MaRap]
- GSK-3β FRB* expression: restored GSK-3β FRB* expression to normal

— patent US20050214738A1, “Conditional allele system” (priority 2003, published 2005)
